# Laboratory results: PMC10916352, “Safety Evaluation of a Prototypical Diazirine-Based Covalent Crosslinker and Molecular Adhesive” (International Journal of Toxicology, 2023)
# Where a name gives a salt, the structure may show the parent alone.
# What was measured:
# [1] = test system: EPISKIN Small Model (human epidermis model); assay: In vitro skin irritation test, MTT viability; type: cell-based; details: 15 min exposure, 42 h post-incubation
# Description: Tests were performed in triplicate. […] Following exposure, samples were rinsed with phosphate buffered saline until no test item remain, dried carefully, and placed in a new 2 mL well with pre-warmed Maintenance Medium to incubate for 42 h. After incubation, cell culture inserts were dried carefully, transferred into a 12-well plate prefilled with 2 mL MTT in phosphate buffered saline (.3 mg/mL), and incubated for 3 h. Tissue samples were then dried, and a biopsy punch was taken. The epidermis was separated from the collagen matrix, and both were extracted with 500 μL isopropanol and stored for 70 h refrigerated. The amount of extracted formazan was measured in duplicate for each sample by the OD570.
# [2] = test system: Balb/c 3T3 fibroblasts (clone 31); assay: 3T3 Neutral Red uptake cytotoxicity and phototoxicity assay; details: for Corrected Mean OD540: 8 wells; for Photo Irritation Factor (PIF): non-irradiated IC50 divided by irradiated IC50
# Description: (§1) The 3T3 Neutral Red uptake assay was used to evaluate the phototoxicity of BondLynx. The NRU assay makes use of Neutral Red dye, a weak cationic dye that penetrates the cell membrane by non-ionic passive diffusion and accumulates in lysosomes. Cytotoxicity of the test material is evaluated by measuring the OD540 to assess the uptake of Neutral Red dye.[28],[29] […] By measuring cytotoxicity in the absence vs presence of UV and visible light, the phototoxicity of the test material can be determined.[30],[31]
# (§2) Cells were routinely trypsinized and passaged, at least once weekly, with a split ratio 1:3 to 1:4 to achieve a near confluent culture.
# (§3) Stock solutions of both controls were freshly prepared on the day of testing. The vehicle control was 1% DMSO in EBSS for the positive control, EBSS for the negative control, and .5% ethanol in EBSS for BondLynx. BondLynx was dissolved in ethanol for testing. […] All controls and BondLynx were handled in the dark and tested in 8-fold.
# (§4) In preparation for testing, cultures of 3T3 fibroblasts were trypsinized and resuspended in culture medium. […] A total of six plates were prepared in this manner – two each for the positive control, the negative control, and BondLynx. Following incubation, the cell culture medium was removed, and the wells washed with DPBS (Dulbecco’s phosphate-buffered saline). A 200 μL aliquot of each dilution of the test compound (BondLynx or a control) was added the first eight columns, and the appropriate vehicle control was added to the last four columns. All plates were incubated an additional 60 min before irradiating one plate for each test compound (+Irr) in a solar simulator with a WG320 nm filter for 22 min (equivalent to 5 J/cm^2 UV-A), while the second plate for each test compound (–Irr) was kept in the dark at room temperature. Subsequently, the test solutions were removed from the plates, and the cells were washed once with DPBS and suspended in 200 μL of supplemented DMEM to incubate for an additional 20-24 h.
# (§5) Immediately following incubation, the confluency of each plate was visually assessed, and the culture medium was replaced with 100 μL of Neutral Red dye (50 μg/mL). The plates were incubated another 3.5 h before removing the dye, washing with 150 μL of DPBS, and shaking for 20-40 min in 150 μL Neutral Red destain solution (ethanol:acetic acid:distilled water, 50:1:49). The optical density at 540 nm was measured for each well and corrected by subtracting the appropriate blank.
# [3] = test system: Salmonella typhimurium TA98; assay: Bacterial reverse mutation test (Ames), strain TA98; type: cell-based; details: positive control tested singular
# Description: (§6) The reverse mutation test was performed to determine the potential of BondLynx and/or its metabolites to induce reverse mutations at the histidine locus of Salmonella typhimurium.[26],[27] The test employs strains of Salmonella typhimurium carrying mutations in the genes involved in histidine production, such that they are only able to grow in histidine supplemented culture media. Upon exposure to mutagenic materials, these mutations may be reversed, thereby restoring the ability to grow in histidine-free media. When grown in the presence of the test compound on media with a small amount of histidine, tester strains grow briefly to allow the opportunity for mutation, followed by proliferation of revertant colonies upon depletion of the provided histidine. Thus, the number of revertant colonies following incubation is indicative of the ability of the test compound to induce mutations.
# (§7) Tests were performed on two strains of the bacteria (TA98 and TA100) in the absence and presence of an exogenous mammalian metabolic activation system (5% v/v S9). Positive controls and BondLynx were suspended in dimethyl sulfoxide (DMSO) for testing, and DMSO served as the vehicle control. Positive controls consisted of 2-nitrofluorene (10 μg/plate) for the TA98 strain without S9, methyl mesylate (650 μg/plate) for the TA100 strain without S9, and 2-aminoanthracene for both strains with S9 (1 μg/plate for TA98 and 5 μg/plate for TA100). Eight concentrations of BondLynx (1.7, 5.4, 17, 52, 164, 512, 1600 and 5000 μg/plate) were tested in triplicate. The vehicle control was tested in triplicate and the positive controls were tested singular.
# (§8) Test solutions were prepared by pre-incubating .1 mL fresh bacterial culture (10^9 cells/mL), .1 mL of a BondLynx dilution or control solution, and .5 mL of S9 mix or .1 M phosphate buffer for 30 min before adding to 3 mL of molten (45 ± 2°C) top agar. After mixing in a vortex, agar solutions were poured onto selective agar plates. Upon solidification, the prepared plates were inverted and incubated at 37.0 ± 1.0°C for 48 ± 4 h. Following incubation, revertant colonies were counted with a Sorcerer Colony Counter. The condition of the bacterial background lawn was evaluated macroscopically and/or microscopically using a dissecting microscope when considered necessary.
# [4] = test system: Salmonella typhimurium TA100; assay: Bacterial reverse mutation test (Ames), strain TA100; type: cell-based; details: positive control tested singular
# Description: as §6, §7, §8
# [5] = 3T3 Neutral Red uptake cytotoxicity and phototoxicity assay; details: mouse, Viability (%)
# Description: as §1, §2, §3, §4, §5
smiles,measurement,setting,value
"CCCCCCCCCCCCOS(=O)(=O)[O-].[Na+] [SDS, sodium dodecyl sulphate]",Mean ± SD (OD570 corrected),[1],.039 ± .005
same,Cell Viability (%),[1]; relative to phosphate buffered saline,4.0%
same,Viability (%),"[2]; +Irr, 0.1 μg/mL",100.0%
same,Corrected Mean OD540,"[2]; +Irr, 0.1 μg/mL",1.17
same,Viability (%),"[2]; +Irr, 0.316 μg/mL",99.1%
same,Corrected Mean OD540,"[2]; +Irr, 0.316 μg/mL",1.16
same,Viability (%),"[2]; +Irr, 1 μg/mL",101.7%
same,Corrected Mean OD540,"[2]; +Irr, 1 μg/mL",1.19
same,Viability (%),"[2]; +Irr, 3.16 μg/mL",100.0%
same,Corrected Mean OD540,"[2]; +Irr, 3.16 μg/mL",1.17
same,Viability (%),"[2]; +Irr, 10 μg/mL",95.7%
same,Corrected Mean OD540,"[2]; +Irr, 10 μg/mL",1.12
same,Viability (%),"[2]; +Irr, 31.6 μg/mL",18.8%
same,Corrected Mean OD540,"[2]; +Irr, 31.6 μg/mL",0.22
same,Viability (%),"[2]; +Irr, 100 μg/mL",0.6%
same,Corrected Mean OD540,"[2]; +Irr, 100 μg/mL",0.007
same,Viability (%),"[2]; +Irr, 316 μg/mL",0.5%
same,Corrected Mean OD540,"[2]; +Irr, 316 μg/mL",0.006
same,"IC50 (50% inhibition of Neutral Red uptake), presence of irradiation","[2]; +Irr, 5 J/cm^2 UV-A",21.65 µg/mL
same,Photo Irritation Factor (PIF),[2],1.14
same,"IC50 (50% inhibition of Neutral Red uptake), absence of irradiation",[2]; –Irr,27.4 µg/mL
same,Viability (%),"[2]; –Irr, 0.1 μg/mL",102.0%
same,Corrected Mean OD540,"[2]; –Irr, 0.1 μg/mL",1.25
same,Viability (%),"[2]; –Irr, 0.316 μg/mL",99.6%
same,Corrected Mean OD540,"[2]; –Irr, 0.316 μg/mL",1.22
same,Viability (%),"[2]; –Irr, 1 μg/mL",101.2%
same,Corrected Mean OD540,"[2]; –Irr, 1 μg/mL",1.24
same,Viability (%),"[2]; –Irr, 3.16 μg/mL",101.2%
same,Corrected Mean OD540,"[2]; –Irr, 3.16 μg/mL",1.24
same,Viability (%),"[2]; –Irr, 10 μg/mL",98.8%
same,Corrected Mean OD540,"[2]; –Irr, 10 μg/mL",1.21
same,Viability (%),"[2]; –Irr, 31.6 μg/mL",26.1%
same,Corrected Mean OD540,"[2]; –Irr, 31.6 μg/mL",0.32
same,Viability (%),"[2]; –Irr, 100 μg/mL",0.2%
same,Corrected Mean OD540,"[2]; –Irr, 100 μg/mL",0.003
same,Viability (%),"[2]; –Irr, 316 μg/mL",0.04%
same,Corrected Mean OD540,"[2]; –Irr, 316 μg/mL",0.0005
"O=[N+]([O-])c1ccc2c(c1)Cc1ccccc1-2 [2-nitrofluorene, reference compound]",Revertant Colonies (Without S9),"[3]; TA98, without S9, 10 μg/plate",1962
"Nc1ccc2cc3ccccc3cc2c1 [2-aminoanthracene, reference compound]",Revertant Colonies (With S9),"[4]; TA100, with S9, 5 μg/plate",363
same,Revertant Colonies (With S9),"[3]; TA98, with S9, 1 μg/plate",657
c1ccc2cc3ccccc3cc2c1 [anthracene],"viability at 82 min, 0.01 μg/mL",[5]; +Irr,98.1%
same,"viability at 82 min, 0.0316 μg/mL",[5]; +Irr,60.3%
same,"viability at 82 min, 0.1 μg/mL",[5]; +Irr,3.9%
same,"viability at 82 min, 0.316 μg/mL",[5]; +Irr,4.1%
same,"viability at 82 min, 1 μg/mL",[5]; +Irr,4.2%
same,"viability at 82 min, 3.16 μg/mL",[5]; +Irr,4.2%
same,"viability at 82 min, 10 μg/mL",[5]; +Irr,3.3%
same,"viability at 82 min, 31.6 μg/mL",[5]; +Irr,8.01%
same,"viability at 82 min, 0.01 μg/mL",[5]; –Irr,103%
same,"viability at 82 min, 0.0316 μg/mL",[5]; –Irr,102%
same,"viability at 82 min, 0.1 μg/mL",[5]; –Irr,102%
same,"viability at 82 min, 0.316 μg/mL",[5]; –Irr,101%
same,"viability at 82 min, 1 μg/mL",[5]; –Irr,100%
same,"viability at 82 min, 3.16 μg/mL",[5]; –Irr,101%
same,"viability at 82 min, 10 μg/mL",[5]; –Irr,101%
same,"viability at 82 min, 31.6 μg/mL",[5]; –Irr,103%
same,Corrected Mean OD540,"[2]; +Irr, 0.01 μg/mL",1.09
same,Corrected Mean OD540,"[2]; +Irr, 0.0316 μg/mL",0.67
same,Corrected Mean OD540,"[2]; +Irr, 0.1 μg/mL",0.043
same,Corrected Mean OD540,"[2]; +Irr, 0.316 μg/mL",0.046
same,Corrected Mean OD540,"[2]; +Irr, 1 μg/mL",0.047
same,Corrected Mean OD540,"[2]; +Irr, 3.16 μg/mL",0.047
same,Corrected Mean OD540,"[2]; +Irr, 10 μg/mL",0.037
same,Corrected Mean OD540,"[2]; +Irr, 31.6 μg/mL",0.089
same,IC50,"[2]; Mus musculus, BALB/c3T3, light or radiation study, read-out: IC50 (50% inhibition of Neutral Red uptake), presence of irradiation",0.03 µg/mL
same,Photo Irritation Factor (PIF),[2],> 31.6
same,"IC50 (50% inhibition of Neutral Red uptake), absence of irradiation",[2]; –Irr,no IC50
same,Corrected Mean OD540,"[2]; –Irr, 0.01 μg/mL",1.15
same,Corrected Mean OD540,"[2]; –Irr, 0.0316 μg/mL",1.14
same,Corrected Mean OD540,"[2]; –Irr, 0.1 μg/mL",1.14
same,Corrected Mean OD540,"[2]; –Irr, 0.316 μg/mL",1.13
same,Corrected Mean OD540,"[2]; –Irr, 1 μg/mL",1.12
same,Corrected Mean OD540,"[2]; –Irr, 3.16 μg/mL",1.13
same,Corrected Mean OD540,"[2]; –Irr, 10 μg/mL",1.13
same,Corrected Mean OD540,"[2]; –Irr, 31.6 μg/mL",1.15
"COS(C)(=O)=O [Methyl mesylate, methyl mesylate, reference compound]",Revertant Colonies (Without S9),"[4]; TA100, without S9, 650 μg/plate",646
